Source: US8796241B2, “Therapy of tumors and infectious agents deficient in methylthioadenosine phosphorylase” (priority 2007, dated 2014)

What was measured:
[1] = system: MTAP(+) hematopoietic cell progenitors; assay: Assay of colony-forming cells from mouse bone marrow; assay type: cell-based; details: 5′-dAdo at doses as low as 15 μM
Description: Method: The procedure for assay of colony-forming cells from mouse bone marrow was similar to methods described in the literature (see e.g., B. A. Teicher et al, Cancer Research, 47:513-518, 1987). In brief, cells were flushed from the femurs of Swiss mice, counted, and seeded into six-well tissue culture plates with supplemented McCoy's 5A medium, 15% FBS, 10 to 20% L929-cell conditioned medium as a source of colony-stimulating activity (L929 is MTAP-negative), 0.3% agar, and penicillin/streptomycin (op. cit. B. A. Teicher et al). Cells were seeded at two different densities: 50,000 and 250,000 cells per well. Control wells contained either no drugs, or adenine at 15 or 30 μM, or 5′-deoxyadenosine (5′-dAdo) at 15, 30, or 45 μM. Treatment wells contained 6-methylpurine (MeP) at 5 or 15 μM, 5′-deoxyadenosine (5′-dAdo) at 15 or 30 μM, and adenine at 15 or 30 μM, in various combinations. After eight days of incubation at 37° C. in a humidified 5% CO2 atmosphere, wells were fixed by the addition of 1 ml of 5% glutaraldehyde. Photographs were taken of a randomly selected portion of each well, as viewed (at fixed magnification) through a Nikon inverted microscope equipped with a camera.

MTAP(+) HF cells = assay: Coulter counts of HF cell cultures; assay type: cell-based, human
Description: For adherent cell types (e.g., HF, A549, MCF7) cells were plated in 60 mm -diameter plastic tissue culture dishes and incubated at 37° C. in a humidified 5% CO2 atmosphere, in Dulbecco's Modified Eagle's Medium (DME) with 10% fetal bovine serum (FBS). At the start of an experiment, medium was replaced with DME and 10% dialyzed FBS.
(§1) For adherent cell types, cell numbers were determined periodically by releasing cells with trypsin (dead cells that were no longer adherent were removed by two prior rinses of the culture dish) and placing a portion of the resulting cell suspension in a Coulter counter. For cell types that grow in suspension, portions of the culture were counted directly, without trypsin treatment. Coulter counts of cells from each dish were done twice, and almost all experiments were done in duplicate. In the presentation of results, raw data for Coulter counts is given in some cases, while in others, counts have been rounded off to two to three significant figures. (Background Coulter counts—i.e., counts of diluent alone—were insignificant.)
Cell cultures were treated with MeP, with or without 5′-dAdo or MTA, for 4 days. The cell cultures were then changed to fresh medium, with the addition of 30 μM Ade to inhibit further action of the analog. Two days later cultures were trypsinized and a portion of the suspension was counted.
• A. F-Ade was added to cultures of HF cells, with varying amounts of 5′-dAdo. After 3 days, cell numbers were counted. • Initial cell count: 1,100 • After three days:
• Cultures of human fibroblasts were treated with DAP, 5′-dAdo, MTA, adenine, or MTX. Thymidine (15 μM) was added to all cultures. • Initial count was: 1807 • Counts, as raw data, after 3 days of incubation, are shown below: […]
• Human fibroblasts in culture were treated with 6-thioguanine (TG), 2,6-diaminopurine (DAP), or 5′-dAdo for 3 days. After trypsinization, cell numbers were counted. • Initial cell number: 296,000

MTAP(+) ML-1 cells = assay: Coulter counts of ML-1 suspension cultures; assay type: cell-based
Description: For cell types that grow in suspension (e.g., ML-1, HL-60, K-562) medium was RPMI-1640 with 10% FBS (undialyzed).
as §1
For cells that grow in suspension, the effect of treatments was assessed solely by changes in Coulter count.
• ML-1 cells were incubated in RPMI 1640 with 10% FBS with 5′-dAdo (60 μM) for 6 hours. 5-fluorouracil (FU), 6-thioguanine (TG), or 2,6-diaminopurine (DAP) were then added, and after 2 additional days, 0.5 ml was taken for Coulter counts. Initial Coulter count/ml: 308,000

mice = details: high doses; cited from earlier work

C[C@H]1O[C@@H](n2cnc3c(N)ncnc32)[C@H](O)[C@@H]1O [5′-dAdo, 5′-deoxyadenosine]
blocking of MeP toxicity to murine hematopoietic progenitors [1]: effectively blocked | Coulter counts (MTAP(+) HF cells; 3 days, 5′-dAdo 60 μM, no F-Ade, initial count 1,100, x56 = cells/dish): 8150 | protection of HF cells against MeP toxicity (MTAP(+) HF cells; Example 3): effectively protected | blocking of DAP toxicity in HF cells (MTAP(+) HF cells; Example 8): blocked | blocking of inhibition by TG and by DAP in HF cells (MTAP(+) HF cells; Example 15): blocked inhibition | protection of HF cells from the combined toxicity of TG and DAP (MTAP(+) HF cells; Example 15): protected | protection from toxicity of F-Ade (MTAP(+) HF cells; increasing concentration of 5′-dAdo): so does protection | Increase in cell number/ml, 60 μM 5′-dAdo (MTAP(+) ML-1 cells; 5′-dAdo 60 μM for 6 hours, then 2 days with FU 3 μM, TG 20 μM, DAP 50 μM where present, initial Coulter count/ml 308,000): 918,000 /ml | protection against growth inhibition caused by FU, TG and DAP, individually and in combination (MTAP(+) ML-1 cells; Example 14): effectively protected | toxicity in vivo (mice): non-toxic
